Laboratory results reported in US5045549A, “Substituted 4-pyridone 3-carboxylic acid derivatives, method for their production and their pharmaceutical compositions” (priority 1986, dated 1991).
≈ marks a conversion by molar mass, not a printed value. Where two headings read alike, the source gives them in different places.

Key:
Assay in all cases: MIC agar dilution assay (Table III)
Format in all cases: cell-based
PROV STUA = conditions: 17 PROV STUA CMC 83 3; 18 Hrs, 35 Celsius; read-out: MINIMAL INHIBITORY CONC.
Procedure: (§1) The results are summarized in Table III. |TEST: 406 METHOD: […] |MEDIUM: […] |INCUBATION: 18 Hrs. 35 Celsius | Aerobic: T

ESCH COLI = conditions: 18 h, read-out: MINIMAL INHIBITORY CONC.
Procedure: as §1

PSEU AERUG = conditions: 18 h, read-out: MINIMAL INHIBITORY CONC.
Procedure: as §1

STREP FAEC = conditions: 18 h, read-out: MINIMAL INHIBITORY CONC.
Procedure: as §1

CITRO DIV = conditions: 18 CITRO DIV K 82 24; 18 Hrs, 35 Celsius; read-out: MINIMAL INHIBITORY CONC.
Procedure: as §1

MORG MORG = conditions: 18 h, read-out: MINIMAL INHIBITORY CONC.
Procedure: (§2) TEST: 406 METHOD: AGAR DIL
(§3) MEDIUM: MUEL-HIN INOCULUM: 1.OE+04 - 5.OE+04
(§4) INCUBATION: 18 Hrs. 35 Celsius

PROT RETT = conditions: 16 PROT RETT IO 83 21; 18 Hrs, 35 Celsius; read-out: MINIMAL INHIBITORY CONC.
Procedure: as §2, §3, §4

SERRAT MARC = conditions: 18 h, read-out: MINIMAL INHIBITORY CONC.
Procedure: as §2, §3, §4

KLEB PNEUM = conditions: 18 h, read-out: MINIMAL INHIBITORY CONC.
Procedure: as §2, §3, §4

STAPH AUR = conditions: 18 h, read-out: MINIMAL INHIBITORY CONC.
Procedure: as §2, §3, §4

ENTERO CLO = conditions: 18 h, read-out: MINIMAL INHIBITORY CONC.
Procedure: as §2, §3, §4

[1] = 1 ESCH COLI MOR 84 20, 35 Celsius
[2] = 2 ESCH COLI VGH 84 19, 35 Celsius
[3] = 3 ESCH COLI CMC 84 50, 35 Celsius
[4] = 28 ESCH COLI ATCC 25922, 35 Celsius
[5] = 19 PSEU AERUG K 84 16, 35 Celsius
[6] = 20 PSEU AERUG VGH 84 3, 35 Celsius
[7] = 21 PSEU AERUG CMC 83 20, 35 Celsius
[8] = 25 STREP FAEC UCI 85 30, 35 Celsius
[9] = 26 STREP FAEC VGH 84 69, 35 Celsius
[10] = 27 STREP FAEC CMC 83 120, 35 Celsius
[11] = 13 MORG MORG VGH 84 12, 35 Celsius
[12] = 14 MORG MORG CMC 84 38, 35 Celsius
[13] = 15 MORG MORG MOR 84 45, 35 Celsius
[14] = 10 SERRAT MARC MOR 84 41, 35 Celsius
[15] = 11 SERRAT MARC CMC 83 74, 35 Celsius
[16] = 12 SERRAT MARC IO 83 63, 35 Celsius
[17] = 4 KLEB PNEUM CMC 84 31, 35 Celsius
[18] = 5 KLEB PNEUM MOR 84 24, 35 Celsius
[19] = 6 KLEB PNEUM IO 83 5, 35 Celsius
[20] = 22 STAPH AUR VGH 84 47, 35 Celsius
[21] = 23 STAPH AUR K 82 26, 35 Celsius
[22] = 24 STAPH AUR CMC 83 131, 35 Celsius
[23] = 29 STAPH AUR ATCC 29213, 35 Celsius
[24] = 7 ENTERO CLO VGH 84 39, 35 Celsius
[25] = 8 ENTERO CLO K 84 10, 35 Celsius
[26] = 9 ENTERO CLO MOR 84 30, 35 Celsius

MIC (PROV STUA) | MIC (ESCH COLI; [1]) | MIC (ESCH COLI; [2]) | MIC (ESCH COLI; [3]) | MIC (ESCH COLI; [4]) | MIC (PSEU AERUG; [5]) | MIC (PSEU AERUG; [6]) | MIC (PSEU AERUG; [7]) | MIC (STREP FAEC; [8]) | MIC (STREP FAEC; [9]) | MIC (STREP FAEC; [10]) | MIC (CITRO DIV) | MIC (MORG MORG; [11]) | MIC (MORG MORG; [12]) | MIC (MORG MORG; [13]) | MIC (PROT RETT) | MIC (SERRAT MARC; [14]) | MIC (SERRAT MARC; [15]) | MIC (SERRAT MARC; [16]) | MIC (KLEB PNEUM; [17]) | SMILES | also measured
2 µg/mL (≈ 4.81 µM) | 0.008 µg/mL (≈ 0.0193 µM) | 0.008 µg/mL (≈ 0.0193 µM) | 0.03 µg/mL (≈ 0.0722 µM) | 0.008 µg/mL (≈ 0.0193 µM) | 0.5 µg/mL (≈ 1.2 µM) | 1 µg/mL (≈ 2.41 µM) | 0.25 µg/mL (≈ 0.602 µM) | 0.5 µg/mL (≈ 1.2 µM) | 0.5 µg/mL (≈ 1.2 µM) | 0.5 µg/mL (≈ 1.2 µM) | 0.008 µg/mL (≈ 0.0193 µM) | 0.06 µg/mL (≈ 0.144 µM) | 0.12 µg/mL (≈ 0.289 µM) | 0.03 µg/mL (≈ 0.0722 µM) | 0.03 µg/mL (≈ 0.0722 µM) | 0.06 µg/mL (≈ 0.144 µM) | 4 µg/mL (≈ 9.63 µM) | 0.25 µg/mL (≈ 0.602 µM) | 0.03 µg/mL (≈ 0.0722 µM) | O=C(O)c1cn(-c2ccc(F)cc2F)c2cc(N3CC4CC3CN4)c(F)cc2c1=O (stereo not shown) [Example 11, 7-(2,5-diazabicyclo(2.2.1)hept-2-yl)-6-fluoro-1-(2,4-difluorophenyl)-1,4-dihydro-4-oxoquinoline3-carboxylic acid] | MIC (KLEB PNEUM; [18]): 0.06 µg/mL (≈ 0.144 µM); MIC (KLEB PNEUM; [19]): 0.06 µg/mL (≈ 0.144 µM); MIC (STAPH AUR; [20]): 0.25 µg/mL (≈ 0.602 µM); MIC (STAPH AUR; [21]): 0.12 µg/mL (≈ 0.289 µM); MIC (STAPH AUR; [22]): 0.25 µg/mL (≈ 0.602 µM); MIC (STAPH AUR; [23]): 0.25 µg/mL (≈ 0.602 µM); MIC (ENTERO CLO; [24]): 0.03 µg/mL (≈ 0.0722 µM); MIC (ENTERO CLO; [25]): 0.015 µg/mL (≈ 0.0361 µM); MIC (ENTERO CLO; [26]): 0.03 µg/mL (≈ 0.0722 µM)
4 µg/mL (≈ 9.32 µM) | 0.015 µg/mL (≈ 0.0349 µM) | 0.015 µg/mL (≈ 0.0349 µM) | 0.06 µg/mL (≈ 0.14 µM) | 0.03 µg/mL (≈ 0.0699 µM) | 1 µg/mL (≈ 2.33 µM) | 4 µg/mL (≈ 9.32 µM) | 0.5 µg/mL (≈ 1.16 µM) | 0.5 µg/mL (≈ 1.16 µM) | 0.5 µg/mL (≈ 1.16 µM) | 0.5 µg/mL (≈ 1.16 µM) | 0.03 µg/mL (≈ 0.0699 µM) | 0.25 µg/mL (≈ 0.582 µM) | 0.25 µg/mL (≈ 0.582 µM) | 0.12 µg/mL (≈ 0.279 µM) | 0.06 µg/mL (≈ 0.14 µM) | 0.12 µg/mL (≈ 0.279 µM) | 4 µg/mL (≈ 9.32 µM) | 0.5 µg/mL (≈ 1.16 µM) | 0.06 µg/mL (≈ 0.14 µM) | CN1CC2CC1CN2c1cc2c(cc1F)c(=O)c(C(=O)O)cn2-c1ccc(F)cc1F (stereo not shown) [Example 9, 6-Fluoro-1-(2,4-difluorophenyl)-1,4-dihydro7-(5-methyl-2,5-diazabicyclo(2.2.1)hept-2-yl)-4-oxoquinoline-3-carboxylic acid] | MIC (KLEB PNEUM; [18]): 0.06 µg/mL (≈ 0.14 µM); MIC (KLEB PNEUM; [19]): 0.12 µg/mL (≈ 0.279 µM); MIC (STAPH AUR; [20]): 0.03 µg/mL (≈ 0.0699 µM); MIC (STAPH AUR; [21]): 0.015 µg/mL (≈ 0.0349 µM); MIC (STAPH AUR; [22]): 0.5 µg/mL (≈ 1.16 µM); MIC (STAPH AUR; [23]): 0.03 µg/mL (≈ 0.0699 µM); MIC (ENTERO CLO; [24]): 0.06 µg/mL (≈ 0.14 µM); MIC (ENTERO CLO; [25]): 0.03 µg/mL (≈ 0.0699 µM); MIC (ENTERO CLO; [26]): 0.06 µg/mL (≈ 0.14 µM)
